Experimental data from paper PMC11249646, “Small-Molecule Disruptors of the Interaction between Calcium- and Integrin-Binding Protein 1 and Integrin αIIbβ3 as Novel Antiplatelet Agents” (ACS Pharmacology & Translational Science, 2024).
Like-named read-outs stand apart in the source and are kept apart here.

Molecular target: T1, CIB1 and αIIb interaction (CIB1-GST : F-αIIb peptide) (Homo sapiens, UniProt Q99828)
T1 construct: made in house; host or cells: BL-21 plus RIL cells (E. coli)
T1 sequence (Q99828 1-191): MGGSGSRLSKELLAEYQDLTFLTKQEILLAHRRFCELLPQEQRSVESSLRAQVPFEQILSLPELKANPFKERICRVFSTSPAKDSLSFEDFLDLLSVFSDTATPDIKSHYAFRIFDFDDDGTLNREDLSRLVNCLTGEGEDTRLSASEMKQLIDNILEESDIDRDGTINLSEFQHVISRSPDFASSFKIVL
Assay: FP assay, 1536-well qHTS format (primary and confirmatory screen)
Format: binding
Conditions: for Efficacy (%): negative = inhibition; for Curve Class: negative sign = inhibitory curve; for IC50: read-out: IC50

[1] = qHTS primary screen hits, Table S2
[2] = qHTS primary screen hits, Table S2, several classes where COUNT > 1
[3] = qHTS primary screen of LOPAC/NPACT libraries

SMILES | Efficacy (%) [1] [%] | Curve Class [2] | IC50 [1] [µM] | Efficacy (%) [3] [%] | Curve Class [3] | IC50 [3] [µM] | also measured
COc1cccc(-c2csc(NC(=O)c3ccncc3NS(=O)(=O)c3ccc(C)cc3)n2)c1.O=C(O)C(F)(F)F [NCGC00319006-01] | -58 | -2.2 | 47.4 |  |  |  | 
COc1ccc2[nH]c([S+]([O-])Cc3ncc(C)c(OC)c3C)nc2n1 (centres unmarked) [NCGC00167521-02] |  |  |  |  |  |  | Efficacy (%) (qHTS FP screen hits, Table S2): -34%; IC50 (qHTS FP screen hits, Table S2): 47.4 µM
C=C1C2(C)CC3C(C)(O)C4=CC(=O)OC(C)(C)C4=CCC3(C)C13C(=O)OC(C)C3(O)C2=O (centres unmarked) [NCGC00380442-01] |  |  |  | -28 | -2.4 | 35.5 | 
CN(Cc1cnc2nc(N)nc(N)c2n1)c1ccc(C(=O)N[C@@H](CCC(=O)O)C(=O)O)cc1 [NCGC00260705-01] | -58 |  | 44.7 |  |  |  | Curve Class [1]: -2.2
C=C1c2cccc(O)c2C(O)=C2C(=O)[C@]3(O)C(O)=C(C(N)=O)C(=O)[C@@H](N(C)C)[C@@H]3[C@@H](O)[C@H]12.Cl [NCGC00179358-04] | -53 | -2.4 | 56.2 |  |  |  | 
CCC(=O)NC(c1cccs1)c1cc(Cl)c2cccnc2c1O (centres unmarked) [NCGC00188867-01] | -29 | -2.4 | 44.7 |  |  |  | 
O=C1Nc2ccc3ncsc3c2/C1=C/c1c[nH]cn1 [NCGC00387501-01] | -27 |  | 7.1 |  |  |  | Curve Class (qHTS primary screen hits, Table S2, NPACT library): -1.4
O=C(O)C(F)(F)F.O=C1CC(c2ccc(F)cc2Cl)c2sc(N3CCOCC3)nc2N1 (centres unmarked) [NCGC00488260-02] | -41 | -2.4 | 50.1 |  |  |  | 
Cl.NS(=O)(=O)c1cccc(Cc2c(-c3ccc(F)c(F)c3)nn(-c3nc(C(=O)O)cs3)c2O)c1 [NCGC00356269-01] | -17 | -2.4 | 50.1 |  |  |  | 
CN(N=O)c1cc(O)ccc1O [NCGC00015372-04] | -50 |  | 50.1 |  |  |  | Curve Class [1]: -2.2
O=C(O)C(F)(F)F.O=S(=O)(Nc1ccc(O)c2ncccc12)c1ccccc1F [NCGC00184887-02] | -48 | -3 | 79.4 |  |  |  | 
C=C1CCC2C(C)(C)CC(O)CC2(C)C1CCC(C)CCOC(=O)CCC(=O)O (centres unmarked) [NCGC00380160-01] |  |  |  | -24 | -2.4 | 39.8 | 
CCOC(=O)C1=C(C)NC(C)=C(C(=O)OC)C1c1cccc(Cl)c1Cl (centres unmarked) [NCGC00015455-08] |  |  |  | -26 | -2.2 | 50.1 | 
Cc1nnc(SCC2=C(C(=O)O)N3C(=O)[C@@H](NC(=O)Cn4cnnn4)[C@H]3SC2)s1 [NCGC00022653-06] |  |  |  | -21 |  |  | 
O.O.O=c1c(O)c(-c2ccc(O)c(O)c2)oc2cc(O)cc(O)c12 [NCGC00015870-27] | -30 |  |  |  |  |  | 
O=C(O)C(F)(F)F.O=C1CC(c2c(F)cccc2F)c2sc(N3CCOCC3)nc2N1 (centres unmarked) [NCGC00488261-02] | -47 | -2.4 | 56.2 |  |  |  | 
COc1cc(O)c2c(c1)/C=C/C[C@H](O)[C@H](O)C(=O)/C=C\C[C@H](C)OC2=O [NCGC00186421-07] |  |  |  | -26 | -2.4 | 25.1 | 

SMILES | Efficacy (%) [1] [%] | Curve Class [2] | IC50 [1] [µM] | Efficacy (%) [3] [%] | Curve Class [3] | IC50 [3] [µM] | also measured
Cc1cc2occ(CN(C)CCN(C)Cc3cn(-c4cccc(C(F)(F)F)c4)c4ccccc34)c(=O)c2cc1C.Cl [NCGC00386701-02] |  |  |  | -31 | -2.4 | 79.4 | 
Cl.O=c1cc(N2CCOCC2)oc2c(-c3ccccc3)cccc12 [NCGC00261395-01] | -52 |  | 50.1 |  |  |  | Curve Class [1]: -2.2
Nc1nc2[nH]cnc2c(=S)[nH]1 [NCGC00263442-01] | -56 |  | 79.4 |  |  |  | Curve Class [1]: -3
O=C1NC(=O)/C(=C/c2ccc3nccnc3c2)S1 [NCGC00261632-01] |  |  |  | -20 | -1.2 | 7.9 | 
O=C(N/N=C/c1ccc([N+](=O)[O-])o1)c1ccc(O)cc1 [NCGC00179496-04] |  |  | 44.7 |  |  |  | 
CCCCn1nc(-c2ccccc2)c2nc3ccccc3nc21.O=C(O)C(F)(F)F [NCGC00351644-02] | -127 | -1.1 | 25.1 |  |  |  | 
COc1ccc(NS(=O)(=O)c2ccc(N)cc2)nn1 [NCGC00016324-09] | -139 |  | 39.8 |  |  |  | Curve Class [1]: -3
COC(=O)C1=C(C)NC(C)=C(C(=O)OCCN(C)Cc2ccccc2)C1c1cccc([N+](=O)[O-])c1.Cl (centres unmarked) [NCGC00261494-01] |  |  |  | -16 | -1.2 | 3.5 | 
Cc1ccc(N)cc1O [NCGC00090702-02] | -38 |  | 126 |  |  |  | Curve Class [1]: -2.2
O=C(/C=C/c1ccccc1)OC[C@H]1O[C@@H](OC(=O)c2cc(O)c(O)c(O)c2)[C@H](O)[C@@H](O)[C@@H]1O [NCGC00380690-01] |  |  |  | -20 | -1.4 | 8.9 | 
C#CCCC(=O)Nc1sc2c(c1-c1nc3ccccc3s1)CCN(C(C)C)C2.O=C(O)C(F)(F)F [NCGC00185086-01] | -24 |  | 3.5 |  |  |  | Curve Class [1]: -1.4
O=C(O)C(F)(F)F.O=C(O)c1csc(-n2nc(-c3ccc(F)c(Cc4ccccc4)c3)cc2O)n1 [NCGC00356005-01] | -47 | -2.2 | 79.4 |  |  |  | 
C=CC(=O)Nc1cccc(Oc2nc(Nc3ccc(N4CCN(C)CC4)cc3)ncc2Cl)c1 [NCGC00346496-04] |  |  |  | -28 | -2.4 | 44.7 | 
COc1ccc(Br)cc1S(=O)(=O)NC(=O)/C=C/c1ccccc1Cc1ccc2ccccc2c1 [NCGC00260960-01] | -50 |  | 22.4 |  |  |  | Curve Class [1]: -2.2
CCOC(=O)C1=C(C)NC(C)=C(C(=O)OCC)C1c1c(F)c(F)c(F)c(F)c1F [NCGC00186027-01] |  |  |  | -13 | -1.2 | 6.3 | 
O=C(O)C(F)(F)F.O=C1CC(c2ccc(F)cc2F)c2sc(N3CCOCC3)nc2N1 (centres unmarked) [NCGC00488253-02] | -42 | -2.4 | 50.1 |  |  |  | 
